PubChem BioAssay (NCI)
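Test compounds were applied to cells in 96-well plates for 48 hours at 5 doses. Here, GI50 denotes the concentration required for 50% inhibition of growth. TGI is the concentration that stops growth completely.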

Tests used:
Test in all cases: inhibition of tumour cell growth, NCI panel, 48 h
[1] = tested on: HCT-116 colon
[2] = tested on: SNB-19 CNS
[3] = tested on: MDA-MB-231 breast
[4] = tested on: BT-549 breast
[5] = tested on: MCF7 breast
[6] = tested on: PC-3 prostate
[7] = tested on: OVCAR-3 ovarian
[8] = tested on: SK-MEL-28 melanoma
[9] = tested on: CAKI-1 renal
[10] = tested on: UACC-257 melanoma
[11] = tested on: NCI-H226 lung
[12] = tested on: SK-MEL-2 melanoma
[13] = tested on: A549 NSCLC
[14] = tested on: SF-295 CNS
[15] = tested on: SW-620 colon
[16] = tested on: A498 renal
[17] = tested on: SK-OV-3 ovarian
[18] = tested on: COLO 205 colon
[19] = tested on: OVCAR-8 ovarian
[20] = tested on: HCT-15 colon
[21] = tested on: ACHN renal
[22] = tested on: T-47D breast
[23] = tested on: MALME-3M melanoma
[24] = tested on: HOP-92 NSCLC
[25] = tested on: U251 CNS
[26] = tested on: KM12 colon
[27] = tested on: NCI/ADR-RES ovarian
[28] = tested on: SF-539 CNS
[29] = tested on: HCC-2998 colon
[30] = tested on: NCI-H23 lung
[31] = tested on: HT29 colon
[32] = tested on: RPMI-8226 leukemia
[33] = tested on: EKVX NSCLC
[34] = tested on: OVCAR-5 ovarian
[35] = tested on: M14 melanoma
[36] = tested on: NCI-H460 lung
[37] = tested on: HOP-62 NSCLC
[38] = tested on: SN12C renal
[39] = tested on: IGROV1 ovarian
[40] = tested on: HS 578T breast
[41] = tested on: SF-268 CNS
[42] = tested on: MDA-MB-435
[43] = tested on: SNB-75 CNS
[44] = tested on: OVCAR-4 ovarian
[45] = tested on: LOX IMVI melanoma
[46] = tested on: NCI-H522 lung
[47] = tested on: DU-145 prostate
[48] = tested on: TK-10 renal

O=[N+]([O-])c1ccc(N/N=C\c2ccc(O)cc2O)nc1
GI50 [1]: 2.11 µM | TGI [1]: > 100 µM | GI50 [2]: 3.24 µM | TGI [2]: > 100 µM | GI50 [3]: 2.1 µM | TGI [3]: > 100 µM | GI50 [4]: 6.06 µM | TGI [4]: > 100 µM | GI50 [5]: 3.4 µM | TGI [5]: > 100 µM | GI50 [6]: 5.73 µM | TGI [6]: > 100 µM | GI50 [7]: 0.398 µM | TGI [7]: 42.1 µM | GI50 [8]: 5.03 µM | TGI [8]: > 100 µM | GI50 [9]: 1.68 µM | TGI [9]: 9.8 µM | GI50 [10]: 3.37 µM | TGI [10]: > 100 µM | GI50 [11]: 3.39 µM | TGI [11]: > 100 µM | GI50 [12]: 5.21 µM | TGI [12]: > 100 µM | GI50 [13]: 2.47 µM | TGI [13]: > 100 µM | GI50 [14]: 2.96 µM | TGI [14]: > 100 µM | GI50 [15]: 2.69 µM | TGI [15]: > 100 µM | GI50 [16]: > 100 µM | TGI [16]: > 100 µM | GI50 [17]: 2.18 µM | TGI [17]: > 100 µM | GI50 [18]: 5.56 µM | TGI [18]: > 100 µM | GI50 [19]: 1.52 µM | TGI [19]: > 100 µM | GI50 [20]: 0.828 µM | TGI [20]: > 100 µM | GI50 [21]: 0.599 µM | TGI [21]: 21.3 µM | GI50 [22]: 4.04 µM | TGI [22]: > 100 µM | GI50 [23]: 2.61 µM | TGI [23]: > 100 µM | GI50 [24]: 5.54 µM | TGI [24]: > 100 µM | GI50 [25]: 2.08 µM | TGI [25]: > 100 µM | GI50 [26]: 1.91 µM | TGI [26]: > 100 µM | GI50 [27]: 0.498 µM | TGI [27]: 31.2 µM | GI50 [28]: 3.07 µM | TGI [28]: > 100 µM | GI50 [29]: 3.94 µM | TGI [29]: > 100 µM | GI50 [30]: 3.39 µM | TGI [30]: > 100 µM | GI50 [31]: 5.32 µM | TGI [31]: > 100 µM | GI50 [32]: 4.21 µM | TGI [32]: > 100 µM | GI50 [33]: 3.49 µM | TGI [33]: > 100 µM | GI50 [34]: 5.68 µM | TGI [34]: > 100 µM | GI50 [35]: 1.44 µM | TGI [35]: 4.85 µM | GI50 [36]: 0.797 µM | TGI [36]: > 100 µM | GI50 [37]: 4.34 µM | TGI [37]: 45 µM | GI50 [38]: 3.12 µM | TGI [38]: > 100 µM | GI50 [39]: 3.4 µM | TGI [39]: > 100 µM | GI50 [40]: 38.3 µM | TGI [40]: > 100 µM | GI50 [41]: 1.21 µM | TGI [41]: > 100 µM | GI50 [42]: 3.14 µM | TGI [42]: > 100 µM | GI50 [43]: 9.77 µM | TGI [43]: > 100 µM | GI50 [44]: 1.11 µM | TGI [44]: > 100 µM | GI50 [45]: 0.754 µM | TGI [45]: > 100 µM | GI50 [46]: 10.8 µM | TGI [46]: > 100 µM | GI50 [47]: 1.77 µM | TGI [47]: > 100 µM | GI50 [48]: 5.09 µM | TGI [48]: > 100 µM
